# Assay results from PMC5760624, “Microbiota derived short chain fatty acids promote histone crotonylation in the colon through histone deacetylases” (Nature Communications, 2018).
# Key:
# [1] = biological target: T1, HDAC1 (Homo sapiens, UniProt Q13547); assay: in vitro histone decrotonylation/deacetylation assay with recombinant HDAC1; also used by HDAC1 to crotonylate histones at […] or higher; assay type: biochemical
# [2] = biological target: T1, HDAC1; assay: in vitro histone decrotonylation/deacetylation assay with recombinant HDAC1, western blot readout; assay type: biochemical
# T1 sequence (Q13547 whole entry): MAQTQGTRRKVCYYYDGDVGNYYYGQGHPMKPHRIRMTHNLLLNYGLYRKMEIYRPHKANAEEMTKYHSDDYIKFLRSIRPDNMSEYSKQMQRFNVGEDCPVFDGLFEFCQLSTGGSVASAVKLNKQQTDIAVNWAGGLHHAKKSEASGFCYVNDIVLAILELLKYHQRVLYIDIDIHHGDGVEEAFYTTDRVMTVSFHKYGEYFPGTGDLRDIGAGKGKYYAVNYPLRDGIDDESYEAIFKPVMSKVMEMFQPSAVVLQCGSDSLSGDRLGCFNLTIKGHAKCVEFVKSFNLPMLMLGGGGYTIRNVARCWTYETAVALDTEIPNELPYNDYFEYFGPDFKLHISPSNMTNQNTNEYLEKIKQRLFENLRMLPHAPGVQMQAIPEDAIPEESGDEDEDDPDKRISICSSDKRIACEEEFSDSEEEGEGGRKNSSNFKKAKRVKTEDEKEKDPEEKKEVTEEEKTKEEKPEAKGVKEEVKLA
Structure (SMILES),in vitro histone decrotonylation/deacetylation assay with recombinant HDAC1; als [1],"in vitro histone decrotonylation/deacetylation assay with recombinant HDAC1, wes [2]"
CC=CC(=O)O [crotonate],We also found that crotonate inhibited decrotonylation and deacetylation in vitro (Fig. 7c).,–
CCCC(=O)O [butyrate],–,"In vitro, HDAC inhibitors TSA and butyrate reduced decrotonylation by HDAC1 significantly"
